# Measured values reported in patent US7534808B2, “Indolylmaleimide derivatives” (priority 2002, dated 2009).
# Assays:
# Human recombinant PKCθ = Human recombinant PKCθ (Homo sapiens, UniProt Q04759); experiment: Protein Kinase C θ Assay; assay type: biochemical
# Procedure: (§1) The compounds of formula I are tested for their activity on different PKC isoforms according to a published method (D. Geiges et al. Biochem. Pharmacol. 1997; 53:865-875) The assay is performed in a 96-well polypropylene microtiterplate (Costar 3794) that has been previously siliconized with Sigmacote (Sigma SL-2). The reaction mixture (50 μl) contains 10 μl of the relevant PKC isozyme together with 25 μl of the test compound and 15 μl of a mix solution that contains 200 μg/ml protamine sulfate, 10 mM Mg(NO3)2, 10 μM ATP (Boehringer 519987) and 3750 Bq of ^33P-ATP (Hartmann Analytic SFC301, 110TBq/mmol) in 20 mM Tris-buffer pH 7.4+0.1% BSA. Incubation is performed for 15 min at 32° C. in a microtiterplate shaking incubator (Biolabo Scientific Instruments). Reaction is stopped by adding 10 μl of 0.5 M Na2EDTA, pH 7.4. 50 μl of mixture are pipetted onto a pre-wetted phosphocellulose paper (Whatmann 3698-915) under gentle pressure. Non-incorporated ATP is washed away with 100 μl bi-dist H2O. The paper is washed twice in 0.5% H3PO4 for 15 min followed by 5 min in EtOH. Thereafter the paper is dryed and placed in an omnifilter (Packard 6005219), and overlayed with 10 μl/well of Microscint-O (Packard 6013611) before counting in a Topcount radioactivity counter (Packard). […] IC50 values are calculated from the graph by sigmoidal curve fitting. […]
# Human recombinant PKCε = target: T1, Human recombinant PKCε (Homo sapiens, UniProt Q02156); experiment: Protein Kinase Cε Assay; assay type: biochemical
# T1 construct: purchased Oxford Biomedical Research
# T1 sequence (Q02156 1-737): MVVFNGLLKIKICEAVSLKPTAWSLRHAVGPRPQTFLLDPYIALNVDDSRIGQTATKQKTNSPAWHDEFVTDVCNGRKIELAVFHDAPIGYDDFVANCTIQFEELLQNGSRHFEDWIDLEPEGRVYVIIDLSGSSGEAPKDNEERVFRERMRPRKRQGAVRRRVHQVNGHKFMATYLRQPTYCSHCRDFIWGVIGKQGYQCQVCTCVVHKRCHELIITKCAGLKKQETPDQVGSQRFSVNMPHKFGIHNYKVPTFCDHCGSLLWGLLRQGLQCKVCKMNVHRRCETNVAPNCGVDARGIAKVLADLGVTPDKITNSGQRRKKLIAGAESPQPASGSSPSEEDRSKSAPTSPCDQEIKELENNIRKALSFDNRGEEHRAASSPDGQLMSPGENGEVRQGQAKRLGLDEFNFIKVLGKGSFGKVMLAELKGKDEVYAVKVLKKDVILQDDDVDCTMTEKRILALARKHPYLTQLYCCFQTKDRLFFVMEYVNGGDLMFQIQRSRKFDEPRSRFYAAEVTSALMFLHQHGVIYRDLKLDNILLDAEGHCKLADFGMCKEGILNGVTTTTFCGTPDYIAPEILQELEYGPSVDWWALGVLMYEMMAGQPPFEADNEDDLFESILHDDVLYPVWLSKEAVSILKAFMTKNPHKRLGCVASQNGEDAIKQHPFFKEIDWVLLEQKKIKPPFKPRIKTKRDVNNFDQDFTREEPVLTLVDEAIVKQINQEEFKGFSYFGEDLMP
# Procedure: as §1
# Human recombinant PKCθ, sequence (Q04759 whole entry, canonical isoform): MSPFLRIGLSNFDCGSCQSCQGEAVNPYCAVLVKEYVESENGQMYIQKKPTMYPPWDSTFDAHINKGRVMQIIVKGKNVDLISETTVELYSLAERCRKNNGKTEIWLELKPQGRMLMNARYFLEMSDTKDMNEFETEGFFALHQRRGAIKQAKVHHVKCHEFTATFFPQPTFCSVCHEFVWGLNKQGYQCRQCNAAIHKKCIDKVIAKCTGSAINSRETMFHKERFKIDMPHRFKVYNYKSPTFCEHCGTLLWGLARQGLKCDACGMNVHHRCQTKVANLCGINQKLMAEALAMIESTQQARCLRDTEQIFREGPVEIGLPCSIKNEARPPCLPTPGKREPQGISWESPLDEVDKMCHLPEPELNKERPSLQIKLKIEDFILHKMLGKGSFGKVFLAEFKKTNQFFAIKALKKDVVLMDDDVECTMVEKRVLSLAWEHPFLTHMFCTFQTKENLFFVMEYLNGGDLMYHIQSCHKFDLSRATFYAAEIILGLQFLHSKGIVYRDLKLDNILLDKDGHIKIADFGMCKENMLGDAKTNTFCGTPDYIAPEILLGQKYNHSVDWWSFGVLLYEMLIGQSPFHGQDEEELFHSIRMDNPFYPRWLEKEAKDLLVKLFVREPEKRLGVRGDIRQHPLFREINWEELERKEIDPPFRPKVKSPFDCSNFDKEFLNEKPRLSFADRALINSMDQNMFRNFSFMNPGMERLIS
structure (smiles),measurement,setting,value
"Cc1cccc2c(C3=C(c4nc(N5CCNC6(CC6)C5)cc5ccccc45)C(=O)NC3=O)c[nH]c12 [Example 69, 3-[3-(4,7-Diaza-spiro[2.5]oct-7-yl)-isoquinolin-1-yl]-4-(7-methyl-1H-indol-3-yl)-pyrrole-2,5-dione]",IC50,Human recombinant PKCθ,12.1 nM
same,IC50,Human recombinant PKCε,18 nM
